In patent publication US12678507B2, “Protein tyrosine kinase 6 (PTK6) degradation / disruption compounds and methods of use” (Icahn School of Medicine at Mount Sinai, priority 2018, dated 2026):

Target: T1, PTK6 (Homo sapiens, UniProt Q13882)
T1 construct: endogenous in cells; host or cells: MDA-MB231 cells (ATCC)
Test: Western blot of PTK6 protein levels in MDA-MB231 cells
Format: cell-based
Settings: MDA-231 (MDA-MB231) cells, 500 nM, 24 hours, Western blot (FIGS. 3-5)
Protocol: FIGS. 2-5. Effects of exemplary compounds on reducing PTK6 protein levels in breast cancer cells. Triple negative MDA-MB231 cells were treated for 24 hours with 500 nM, 2 uM or 2.5 uM of test compound and lysed. Proteins were resolved by SDS/PAGE and immunoblotted with antibody to PTK6 (Santa Cruz, Cell Signaling) or GAPDH loading control (Cell Signaling).
FIG. 13. PTK6 degraders suppress PTK6 expression. MDA-MB231 cells were treated with compounds (500 nM or 1 uM) for 24 hours in monolayer cultures. Cells were lysed and lysates were probed with anti-PTK6 antibody.
MDA-MB231 cells were treated with DMSO or indicated compounds at 2.5 uM, 2 uM or 500 nM for 24 hours.
MDA-MB231 cells were treated with compounds (500 nM or 1 uM) for 24 hours in monolayer cultures. Cells were lysed and lysates were probed with anti-PTK6 antibody.
Cells were lysed in 1% NP-40 lysis buffer containing NaF, Na3VO4, Leupeptin, PMSF, aprotinin, and phosphatase inhibitor (PhosSTOP, Roche) as described previously (Irie et al., 2010). Cleared cell lysates were stored at −80° C. and were analyzed by western analysis as described previously (Irie et al., 2010).

T1 sequence (Q13882 whole entry): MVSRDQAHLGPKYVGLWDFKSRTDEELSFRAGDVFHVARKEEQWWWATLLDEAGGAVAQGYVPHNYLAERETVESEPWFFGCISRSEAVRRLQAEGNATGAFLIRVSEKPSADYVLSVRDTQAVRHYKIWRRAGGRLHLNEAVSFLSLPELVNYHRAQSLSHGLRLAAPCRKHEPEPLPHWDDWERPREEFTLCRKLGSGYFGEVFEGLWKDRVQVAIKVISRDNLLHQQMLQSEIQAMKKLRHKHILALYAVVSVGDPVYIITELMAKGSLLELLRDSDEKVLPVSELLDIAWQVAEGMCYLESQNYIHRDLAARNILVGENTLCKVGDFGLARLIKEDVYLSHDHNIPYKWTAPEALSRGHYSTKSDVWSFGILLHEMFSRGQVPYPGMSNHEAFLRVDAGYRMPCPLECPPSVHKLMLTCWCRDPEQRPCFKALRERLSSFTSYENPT

SMILES	reducing PTK6 protein levels / suppress PTK6 expression
Cc1ncsc1-c1ccc(CNC(=O)[C@@H]2C[C@@H](O)CN2C(=O)[C@@H](NC(=O)CCCCNC(=O)CN2CCN(C(=O)c3ccc(Nc4nc(C5CC5)cn5c(-c6cn[nH]c6)cnc45)c(F)c3)CC2)C(C)(C)C)cc1 [YX39-101, (2S,4R)-1-((S)-2-(5-(2-(4-(4-((6-cyclopropyl-3-(1H-pyrazol-4-yl)imidazo[1,2-a]pyrazin-8-yl)amino)-3-fluorobenzoyl)piperazin-1-yl)acetamido)pentanamido)-3,3-dimethylbutanoyl)-4-hydroxy-N-(4-(4-methylthiazol-5-yl)benzyl)pyrrolidine-2-carboxamide]	effective in reducing PTK6 protein levels
Cc1ncsc1-c1ccc(CNC(=O)[C@@H]2C[C@@H](O)CN2C(=O)[C@@H](NC(=O)CCCCCNC(=O)CN2CCN(C(=O)c3ccc(Nc4nc(C5CC5)cn5c(-c6cn[nH]c6)cnc45)c(F)c3)CC2)C(C)(C)C)cc1 [YX39-102, (2S,4R)-1-((S)-2-(6-(2-(4-(4-((6-cyclopropyl-3-(1H-pyrazol-4-yl)imidazo[1,2-a]pyrazin-8-yl)amino)-3-fluorobenzoyl)piperazin-1-yl)acetamido)hexanamido)-3,3-dimethylbutanoyl)-4-hydroxy-N-(4-(4-methylthiazol-5-yl)benzyl)pyrrolidine-2-carboxamide]	effective in reducing PTK6 protein levels
Cc1ncsc1-c1ccc(CNC(=O)[C@@H]2C[C@@H](O)CN2C(=O)[C@@H](NC(=O)CCCCCCCNC(=O)CN2CCN(C(=O)c3ccc(Nc4nc(C5CC5)cn5c(-c6cn[nH]c6)cnc45)c(F)c3)CC2)C(C)(C)C)cc1 [YX39-104, (2S,4R)-1-((S)-2-(8-(2-(4-(4-((6-cyclopropyl-3-(1H-pyrazol-4-yl)imidazo[1,2-a]pyrazin-8-yl)amino)-3-fluorobenzoyl)piperazin-1-yl)acetamido)octanamido)-3,3-dimethylbutanoyl)-4-hydroxy-N-(4-(4-methylthiazol-5-yl)benzyl)pyrrolidine-2-carboxamide]	effective in reducing PTK6 protein levels
Cc1ncsc1-c1ccc(CNC(=O)[C@@H]2C[C@@H](O)CN2C(=O)[C@@H](NC(=O)CCCCCCCCCNC(=O)CN2CCN(C(=O)c3ccc(Nc4nc(C5CC5)cn5c(-c6cn[nH]c6)cnc45)c(F)c3)CC2)C(C)(C)C)cc1 [YX39-106, (2S,4R)-1-((S)-2-(10-(2-(4-(4-((6-cyclopropyl-3-(1H-pyrazol-4-yl)imidazo[1,2-a]pyrazin-8-yl)amino)-3-fluorobenzoyl)piperazin-1-yl)acetamido)decanamido)-3,3-dimethylbutanoyl)-4-hydroxy-N-(4-(4-methylthiazol-5-yl)benzyl)pyrrolidine-2-carboxamide]	effective in reducing PTK6 protein levels
Cc1ncsc1-c1ccc(CNC(=O)[C@@H]2C[C@@H](O)CN2C(=O)[C@@H](NC(=O)CCCCCCCCCCNC(=O)CN2CCN(C(=O)c3ccc(Nc4nc(C5CC5)cn5c(-c6cn[nH]c6)cnc45)c(F)c3)CC2)C(C)(C)C)cc1 [YX39-107, (2S,4R)-1-((S)-2-(11-(2-(4-(4-((6-cyclopropyl-3-(1H-pyrazol-4-yl)imidazo[1,2-a]pyrazin-8-yl)amino)-3-fluorobenzoyl)piperazin-1-yl)acetamido)undecanamido)-3,3-dimethylbutanoyl)-4-hydroxy-N-(4-(4-methylthiazol-5-yl)benzyl)pyrrolidine-2-carboxamide]	effective in reducing PTK6 protein levels
Cc1ncsc1-c1ccc([C@H](C)NC(=O)[C@@H]2C[C@@H](O)CN2C(=O)[C@@H](NC(=O)COCCOCCOCCNC(=O)CN2CCN(C(=O)c3ccc(Nc4nc(C5CC5)cn5c(-c6cn[nH]c6)cnc45)c(F)c3)CC2)C(C)(C)C)cc1 [YX69-159, (2S,4R)-1-((S)-2-(tert-butyl)-17-(4-(4-((6-cyclopropyl-3-(1H-pyrazol-4-yl)imidazo[1,2-a]pyrazin-8-yl)amino)-3-fluorobenzoyl)piperazin-1-yl)-4,16-dioxo-6,9,12-trioxa-3,15-diazaheptadecanoyl)-4-hydroxy-N-((S)-1-(4-(4-methylthiazol-5-yl)phenyl)ethyl)pyrrolidine-2-carboxamide]	potently suppress PTK6 expression
Cc1ncsc1-c1ccc(CNC(=O)[C@@H]2C[C@@H](O)CN2C(=O)[C@@H](NC(=O)CCCC(=O)N2CCN(C(=O)c3ccc(Nc4nc(C5CC5)cn5c(-c6cn[nH]c6)cnc45)c(F)c3)CC2)C(C)(C)C)cc1 [YX79-10, (2S,4R)-1-((S)-2-(5-(4-(4-((6-cyclopropyl-3-(1H-pyrazol-4-yl)imidazo[1,2-a]pyrazin-8-yl)amino)-3-fluorobenzoyl)piperazin-1-yl)-5-oxopentanamido)-3,3-dimethylbutanoyl)-4-hydroxy-N-(4-(4-methylthiazol-5-yl)benzyl)pyrrolidine-2-carboxamide]	potently suppress PTK6 expression
Cc1ncsc1-c1ccc(CNC(=O)[C@@H]2C[C@@H](O)CN2C(=O)[C@@H](NC(=O)CCCCC(=O)N2CCN(C(=O)c3ccc(Nc4nc(C5CC5)cn5c(-c6cn[nH]c6)cnc45)c(F)c3)CC2)C(C)(C)C)cc1 [YX79-11, (2S,4R)-1-((S)-2-(6-(4-(4-((6-cyclopropyl-3-(1H-pyrazol-4-yl)imidazo[1,2-a]pyrazin-8-yl)amino)-3-fluorobenzoyl)piperazin-1-yl)-6-oxohexanamido)-3,3-dimethylbutanoyl)-4-hydroxy-N-(4-(4-methylthiazol-5-yl)benzyl)pyrrolidine-2-carboxamide]	potently suppress PTK6 expression
Cc1ncsc1-c1ccc(CNC(=O)[C@@H]2C[C@@H](O)CN2C(=O)[C@@H](NC(=O)CCCCCC(=O)N2CCN(C(=O)c3ccc(Nc4nc(C5CC5)cn5c(-c6cn[nH]c6)cnc45)c(F)c3)CC2)C(C)(C)C)cc1 [YX79-12, (2S,4R)-1-((S)-2-(7-(4-(4-((6-cyclopropyl-3-(1H-pyrazol-4-yl)imidazo[1,2-a]pyrazin-8-yl)amino)-3-fluorobenzoyl)piperazin-1-yl)-7-oxoheptanamido)-3,3-dimethylbutanoyl)-4-hydroxy-N-(4-(4-methylthiazol-5-yl)benzyl)pyrrolidine-2-carboxamide]	potently suppress PTK6 expression
Cc1ncsc1-c1ccc(CNC(=O)[C@@H]2C[C@@H](O)CN2C(=O)[C@@H](NC(=O)CCOCCC(=O)N2CCN(C(=O)c3ccc(Nc4nc(C5CC5)cn5c(-c6cn[nH]c6)cnc45)c(F)c3)CC2)C(C)(C)C)cc1 [YX79-15, (2S,4R)-1-((S)-2-(3-(3-(4-(4-((6-cyclopropyl-3-(1H-pyrazol-4-yl)imidazo[1,2-a]pyrazin-8-yl)amino)-3-fluorobenzoyl)piperazin-1-yl)-3-oxopropoxy)propanamido)-3,3-dimethylbutanoyl)-4-hydroxy-N-(4-(4-methylthiazol-5-yl)benzyl)pyrrolidine-2-carboxamide]	potently suppress PTK6 expression
O=C1CCC(N2C(=O)c3cccc(NCCOCCOCCC(=O)N4CCN(C(=O)c5ccc(Nc6nc(C7CC7)cn7c(-c8cn[nH]c8)cnc67)c(F)c5)CC4)c3C2=O)C(=O)N1 (stereo not shown) [YX79-36, 4-((2-(2-(3-(4-(4-((6-cyclopropyl-3-(1H-pyrazol-4-yl)imidazo[1,2-a]pyrazin-8-yl)amino)-3-fluorobenzoyl)piperazin-1-yl)-3-oxopropoxy)ethoxy)ethyl)amino)-2-(2,6-dioxopiperidin-3-yl)isoindoline-1,3-dione]	potently suppress PTK6 expression
O=C1CCC(N2C(=O)c3cccc(NCCOCCOCCOCCC(=O)N4CCN(C(=O)c5ccc(Nc6nc(C7CC7)cn7c(-c8cn[nH]c8)cnc67)c(F)c5)CC4)c3C2=O)C(=O)N1 (stereo not shown) [YX79-37, 4-((2-(2-(2-(3-(4-(4-((6-cyclopropyl-3-(1H-pyrazol-4-yl)imidazo[1,2-a]pyrazin-8-yl)amino)-3-fluorobenzoyl)piperazin-1-yl)-3-oxopropoxy)ethoxy)ethoxy)ethyl)amino)-2-(2,6-dioxopiperidin-3-yl)isoindoline-1,3-dione]	potently suppress PTK6 expression
Cc1ncsc1-c1ccc(CNC(=O)[C@@H]2C[C@@H](O)CN2C(=O)[C@@H](NC(=O)COCC(=O)N2CCN(C(=O)c3ccc(Nc4nc(C5CC5)cn5c(-c6cn[nH]c6)cnc45)c(F)c3)CC2)C(C)(C)C)cc1 [YX79-40, (2S,4R)-1-((S)-2-(2-(2-(4-(4-((6-cyclopropyl-3-(1H-pyrazol-4-yl)imidazo[1,2-a]pyrazin-8-yl)amino)-3-fluorobenzoyl)piperazin-1-yl)-2-oxoethoxy)acetamido)-3,3-dimethylbutanoyl)-4-hydroxy-N-(4-(4-methylthiazol-5-yl)benzyl)pyrrolidine-2-carboxamide]	potently suppress PTK6 expression
